The target of one experiment is T1, Endothelin-1 receptor (Sus scrofa, UniProt Q29010).
T1 sequence (Q29010 whole entry): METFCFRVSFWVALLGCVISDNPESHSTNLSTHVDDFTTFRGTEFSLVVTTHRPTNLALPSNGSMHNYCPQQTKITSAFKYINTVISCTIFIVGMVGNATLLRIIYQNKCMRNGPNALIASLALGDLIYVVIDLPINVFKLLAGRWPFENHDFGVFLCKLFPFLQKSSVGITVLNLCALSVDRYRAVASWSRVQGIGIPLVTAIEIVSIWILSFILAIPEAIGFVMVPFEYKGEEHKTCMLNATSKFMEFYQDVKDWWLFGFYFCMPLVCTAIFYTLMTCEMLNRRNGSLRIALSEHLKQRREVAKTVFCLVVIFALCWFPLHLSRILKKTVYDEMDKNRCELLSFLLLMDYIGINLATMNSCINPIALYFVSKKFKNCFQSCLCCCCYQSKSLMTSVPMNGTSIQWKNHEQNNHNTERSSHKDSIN
Description: Antagonist activity against ET-A from porcine heart membranes. The format is functional, tissue-based.

Experiment [1] deals with T2, Endothelin-1 receptor (Sus scrofa) (UniProt Q29010).
T2 sequence (whole entry): T1 sequence (Q29010 whole entry)
The experiment can be described thus: Inhibition of endothelin (ET-A) binding to porcine heart membranes. The arrangement: concentration or dose not given beside the values. To be noted: Membrane, concentration not given here.

Square brackets hold non-standard residues; d marks the D form. Peptide text beside a SMILES is read from it. dGly(5-dibenzosuberyl) = N[C@@H](C(=O)O)C1c2ccccc2CCc2ccccc21

By IC50 is commonly meant the midpoint of a concentration-inhibition curve. Regarding `CC[C@H](C)[C@H](NC(=O)[C@H](CC(=O)O)NC(=O)[C@@H]1CCCN1C(=O)[C@H](NC(C)=O)C1c2ccccc2CCc2ccccc21)C(=O)N[C@H](C(=O)N[C@@H](Cc1c[nH]c2ccccc12)C(=O)O)[C@@H](C)CC`, the IC50 against Endothelin-1 receptor was 6 nM. What is called inhibition is how much of the control response was suppressed. With `CC[C@H](C)[C@H](NC(=O)[C@H](Cc1c[nH]cn1)NC(=O)[C@H](CC(=O)O)NC(=O)[C@H](CC(C)C)NC(=O)[C@H](NC(C)=O)C1c2ccccc2CCc2ccccc21)C(=O)N[C@@H](Cc1c[nH]c2ccccc12)C(=O)O`, the inhibition in experiment [1] turned out to be 12%. Still for that read-out and setting: to `CC[C@H](C)[C@H](NC(=O)[C@H](CCCCN)NC(=O)[C@H](CC(=O)O)NC(=O)[C@H](CC(C)C)NC(=O)[C@H](NC(C)=O)C1c2ccccc2CCc2ccccc21)C(=O)N[C@@H](Cc1c[nH]c2ccccc12)C(=O)O` belongs 0%. Still for that read-out and setting: to `CC[C@H](C)[C@H](NC(=O)[C@H](CCCN=C(N)N)NC(=O)[C@H](CC(=O)O)NC(=O)[C@H](CC(C)C)NC(=O)[C@H](NC(C)=O)C1c2ccccc2CCc2ccccc21)C(=O)N[C@@H](Cc1c[nH]c2ccccc12)C(=O)O` belongs 0%. Regarding `CC[C@H](C)[C@H](NC(=O)[C@H](Cc1ccc(O)cc1)NC(=O)[C@H](CC(=O)O)NC(=O)[C@H](CC(C)C)NC(=O)[C@H](NC(C)=O)C1c2ccccc2CCc2ccccc21)C(=O)N[C@@H](Cc1c[nH]c2ccccc12)C(=O)O`, the inhibition in experiment [1] is 9%. As for `CC[C@H](C)[C@H](NC(=O)[C@H](CC(=O)O)NC(=O)[C@@H](NC(=O)[C@H](NC(C)=O)C1c2ccccc2CCc2ccccc21)[C@@H](C)O)C(=O)N[C@H](C(=O)N[C@@H](Cc1c[nH]c2ccccc12)C(=O)O)[C@@H](C)CC`, on Endothelin-1 receptor, the IC50 was found to be 4 nM.

As for `CC[C@H](C)[C@H](NC(=O)[C@@H](NC(=O)[C@H](CC(=O)O)NC(=O)[C@H](CC(C)C)NC(=O)[C@H](NC(C)=O)C1c2ccccc2CCc2ccccc21)C(C)(C)C)C(=O)N[C@@H](Cc1c[nH]c2ccccc12)C(=O)O`, the IC50 on Endothelin-1 receptor was 5 nM.

Consider `CC[C@H](C)[C@H](NC(=O)[C@@H](NC(=O)[C@H](CC(=O)O)NC(=O)[C@H](CC(N)=O)NC(=O)[C@H](NC(C)=O)C1c2ccccc2CCc2ccccc21)C(C)C)C(=O)N[C@@H](Cc1c[nH]c2ccccc12)C(=O)O`, for which the midpoint of inhibition on Endothelin-1 receptor, the IC50, lay at 4 nM. Still for that read-out and setting: then `CC[C@H](C)[C@H](NC(=O)[C@H](CC(=O)O)NC(=O)[C@H](CCC(=O)O)NC(=O)[C@H](NC(C)=O)C1c2ccccc2CCc2ccccc21)C(=O)N[C@H](C(=O)N[C@@H](Cc1c[nH]c2ccccc12)C(=O)O)[C@@H](C)CC` (Ac-[dGly(5-dibenzosuberyl)]EDIIW-OH), with 11 nM; and `CC[C@H](C)[C@H](NC(=O)[C@@H](NC(=O)[C@H](CC(=O)O)NC(=O)[C@H](CCC(N)=O)NC(=O)[C@H](NC(C)=O)C1c2ccccc2CCc2ccccc21)C(C)(C)C)C(=O)N[C@@H](Cc1c[nH]c2ccccc12)C(=O)O`, with 5 nM. With `CC[C@H](C)[C@H](NC(=O)[C@H](CCC(=O)O)NC(=O)[C@H](CC(=O)O)NC(=O)[C@H](CC(C)C)NC(=O)[C@H](NC(C)=O)C1c2ccccc2CCc2ccccc21)C(=O)N[C@@H](Cc1c[nH]c2ccccc12)C(=O)O`, in experiment [1], the inhibition was 0%. On the same count and under the same terms, then `CC[C@H](C)[C@H](NC(=O)[C@H](Cc1c[nH]c2ccccc12)NC(=O)[C@H](CC(=O)O)NC(=O)[C@H](CC(C)C)NC(=O)[C@H](NC(C)=O)C1c2ccccc2CCc2ccccc21)C(=O)N[C@@H](Cc1c[nH]c2ccccc12)C(=O)O`, with 0%. For the compound `CC[C@H](C)[C@H](NC(=O)[C@H](CC(=O)O)NC(=O)[C@@H](NC(=O)[C@H](NC(C)=O)C1c2ccccc2CCc2ccccc21)[C@@H](C)CC)C(=O)N[C@H](C(=O)N[C@@H](Cc1c[nH]c2ccccc12)C(=O)O)[C@@H](C)CC`, the IC50 at Endothelin-1 receptor amounted to 21 nM.

In experiment [1], `CC[C@H](C)[C@H](NC(=O)[C@@H]1CCCN1C(=O)[C@H](CC(=O)O)NC(=O)[C@H](CC(C)C)NC(=O)[C@H](NC(C)=O)C1c2ccccc2CCc2ccccc21)C(=O)N[C@@H](Cc1c[nH]c2ccccc12)C(=O)O` registered an inhibition of 0%. `CC[C@H](C)[C@H](NC(=O)[C@H](CC(=O)O)NC(=O)[C@H](CC(N)=O)NC(=O)[C@H](NC(C)=O)C1c2ccccc2CCc2ccccc21)C(=O)N[C@H](C(=O)N[C@@H](Cc1c[nH]c2ccccc12)C(=O)O)[C@@H](C)CC` had a half-maximal inhibitory concentration (IC50) on Endothelin-1 receptor of 3 nM. Regarding `CC[C@H](C)[C@H](NC(=O)[C@H](CO)NC(=O)[C@H](CC(=O)O)NC(=O)[C@H](CC(C)C)NC(=O)[C@H](NC(C)=O)C1c2ccccc2CCc2ccccc21)C(=O)N[C@@H](Cc1c[nH]c2ccccc12)C(=O)O`, the inhibition in experiment [1] was determined as 0%. The compound `CC[C@H](C)[C@H](NC(=O)[C@@H](NC(=O)[C@H](CC(=O)O)NC(=O)[C@H](CC(C)C)NC(=O)[C@H](NC(C)=O)C1c2ccccc2CCc2ccccc21)[C@H](C)O)C(=O)N[C@@H](Cc1c[nH]c2ccccc12)C(=O)O` registered an inhibition in experiment [1] of 12%. Regarding `CC[C@H](C)[C@H](NC(=O)[C@H](CC(=O)O)NC(=O)[C@H](Cc1ccccc1)NC(=O)[C@H](NC(C)=O)C1c2ccccc2CCc2ccccc21)C(=O)N[C@H](C(=O)N[C@@H](Cc1c[nH]c2ccccc12)C(=O)O)[C@@H](C)CC`, the midpoint of inhibition against Endothelin-1 receptor, the IC50, lay at 24 nM.

With `CC[C@H](C)[C@H](NC(=O)[C@H](CC(=O)O)NC(=O)[C@H](CO)NC(=O)[C@H](NC(C)=O)C1c2ccccc2CCc2ccccc21)C(=O)N[C@H](C(=O)N[C@@H](Cc1c[nH]c2ccccc12)C(=O)O)[C@@H](C)CC`, the IC50 against Endothelin-1 receptor turned out to be 6 nM. `CC[C@H](C)[C@H](NC(=O)[C@H](CC(=O)O)NC(=O)[C@H](CC(=O)O)NC(=O)[C@H](CC(C)C)NC(=O)[C@H](NC(C)=O)C1c2ccccc2CCc2ccccc21)C(=O)N[C@@H](Cc1c[nH]c2ccccc12)C(=O)O`: the inhibition in experiment [1] is 0%. On Endothelin-1 receptor, `CC[C@H](C)[C@H](NC(=O)[C@H](CC(=O)O)NC(=O)[C@H](Cc1ccc(O)cc1)NC(=O)[C@H](NC(C)=O)C1c2ccccc2CCc2ccccc21)C(=O)N[C@H](C(=O)N[C@@H](Cc1c[nH]c2ccccc12)C(=O)O)[C@@H](C)CC` registered an IC50 of 11 nM. Regarding `CC[C@H](C)[C@H](NC(=O)[C@H](CC(=O)O)NC(=O)[C@H](Cc1c[nH]c2ccccc12)NC(=O)[C@H](NC(C)=O)C1c2ccccc2CCc2ccccc21)C(=O)N[C@H](C(=O)N[C@@H](Cc1c[nH]c2ccccc12)C(=O)O)[C@@H](C)CC`, the IC50 against Endothelin-1 receptor was 11 nM. As to `CC[C@H](C)[C@H](NC(=O)[C@H](CC(C)C)NC(=O)[C@H](CC(=O)O)NC(=O)[C@H](CC(C)C)NC(=O)[C@H](NC(C)=O)C1c2ccccc2CCc2ccccc21)C(=O)N[C@@H](Cc1c[nH]c2ccccc12)C(=O)O`, the inhibition in experiment [1] worked out at 9%. Take `CC[C@H](C)[C@H](NC(=O)[C@H](CC(=O)O)NC(=O)[C@H](CCCN=C(N)N)NC(=O)[C@H](NC(C)=O)C1c2ccccc2CCc2ccccc21)C(=O)N[C@H](C(=O)N[C@@H](Cc1c[nH]c2ccccc12)C(=O)O)[C@@H](C)CC` (Ac-[dGly(5-dibenzosuberyl)]RDIIW-OH): on Endothelin-1 receptor, the half-maximal inhibitory concentration (IC50) came to 3 nM. Still for that read-out and setting: then `CC[C@H](C)[C@H](NC(=O)[C@H](CC(=O)O)NC(=O)[C@H](CCC(N)=O)NC(=O)[C@H](NC(C)=O)C1c2ccccc2CCc2ccccc21)C(=O)N[C@H](C(=O)N[C@@H](Cc1c[nH]c2ccccc12)C(=O)O)[C@@H](C)CC`, with 2 nM. In experiment [1], `CC[C@H](C)[C@H](NC(=O)[C@H](CC(=O)O)NC(=O)[C@H](CC(C)C)NC(=O)[C@H](NC(C)=O)C1c2ccccc2CCc2ccccc21)C(=O)N[C@H](C(=O)N[C@@H](Cc1c[nH]c2ccccc12)C(=O)O)[C@@H](C)CC` (Ac-[dGly(5-dibenzosuberyl)]LDIIW-OH) yielded an inhibition of 62%. In the case of `CC[C@H](C)[C@H](NC(=O)[C@@H](NC(=O)[C@H](CC(=O)O)NC(=O)[C@H](CCC(N)=O)NC(=O)[C@H](NC(C)=O)C1c2ccccc2CCc2ccccc21)C(C)C)C(=O)N[C@@H](Cc1c[nH]c2ccccc12)C(=O)O`, at Endothelin-1 receptor, the IC50 was 1.7 nM. For `CC[C@H](C)[C@H](NC(=O)[C@H](CC(=O)O)NC(=O)[C@H](C)NC(=O)[C@H](NC(C)=O)C1c2ccccc2CCc2ccccc21)C(=O)N[C@H](C(=O)N[C@@H](Cc1c[nH]c2ccccc12)C(=O)O)[C@@H](C)CC`, inhibition at Endothelin-1 receptor was half-maximal at 6 nM (IC50).

`CC[C@H](C)[C@H](NC(=O)[C@H](CC(=O)O)NC(=O)CNC(=O)[C@H](NC(C)=O)C1c2ccccc2CCc2ccccc21)C(=O)N[C@H](C(=O)N[C@@H](Cc1c[nH]c2ccccc12)C(=O)O)[C@@H](C)CC` showed an IC50 against Endothelin-1 receptor of 19 nM.

Compound `CC[C@H](C)[C@H](NC(=O)[C@H](CC(=O)O)NC(=O)[C@H](CCCCN)NC(=O)[C@H](NC(C)=O)C1c2ccccc2CCc2ccccc21)C(=O)N[C@H](C(=O)N[C@@H](Cc1c[nH]c2ccccc12)C(=O)O)[C@@H](C)CC` gave an IC50 at Endothelin-1 receptor of 4 nM. Same read-out and setting: then `CC[C@H](C)[C@H](NC(=O)[C@H](CC(=O)O)NC(=O)[C@@H](NC(=O)[C@H](NC(C)=O)C1c2ccccc2CCc2ccccc21)C(C)C)C(=O)N[C@H](C(=O)N[C@@H](Cc1c[nH]c2ccccc12)C(=O)O)[C@@H](C)CC`, with 12 nM; and `CC[C@H](C)[C@H](NC(=O)[C@H](CC(=O)O)NC(=O)[C@H](CC(=O)O)NC(=O)[C@H](NC(C)=O)C1c2ccccc2CCc2ccccc21)C(=O)N[C@H](C(=O)N[C@@H](Cc1c[nH]c2ccccc12)C(=O)O)[C@@H](C)CC`, with 11 nM; and `CC[C@H](C)[C@H](NC(=O)[C@H](CC(=O)O)NC(=O)[C@H](Cc1c[nH]cn1)NC(=O)[C@H](NC(C)=O)C1c2ccccc2CCc2ccccc21)C(=O)N[C@H](C(=O)N[C@@H](Cc1c[nH]c2ccccc12)C(=O)O)[C@@H](C)CC`, with 50 nM. On the same count and under the same terms, then `CC[C@H](C)[C@H](NC(=O)[C@H](CC(=O)O)NC(=O)[C@H](CCSC)NC(=O)[C@H](NC(C)=O)C1c2ccccc2CCc2ccccc21)C(=O)N[C@H](C(=O)N[C@@H](Cc1c[nH]c2ccccc12)C(=O)O)[C@@H](C)CC`, with 8 nM.

Values taken from ChEMBL document CHEMBL1151010, “A case study of combinatorial libraries: Endothelin receptor antagonist hexapeptides” (Bioorg Med Chem Lett, 1995).
